This note sets out measurements from ChEMBL document CHEMBL1201862, “PubChem BioAssay data set” (2004).

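Interpolation was linear, between the two tested concentrations surrounding the appropriate level; five concentrations were tested over 48 hours in 96-well plates. GI50 marks 50% less growth.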 The source made the active and inactive calls. Cut-off read from the data, not from the text of the source: active = GI50 up to about 1.1 µM and inactive = higher.

Test systems include BT-549; SF-268; M14; SK-MEL-2; Hs-578T; 786-0; SK-MEL-28; SW-620; A498; MCF7; SF-295; OVCAR-5; SNB-75; SF-539; UACC-257; K562; NCI-H23; LOX IMVI; OVCAR-8.
Test in all cases: growth of human tumour cells (NCI), 48 h

As for `C[C@@H](NC(=O)c1ccc(CNC(=O)/C=C/c2cccc(Oc3ccccc3)c2)cc1)c1ccccc1`, the GI50 in the assay on BT-549 was > 94 µM (inactive); in the assay on SF-268, 20.8 µM (inactive); in the assay with M14, 99.1 µM (inactive); with SK-MEL-2, > 60.1 µM (inactive); in the assay on Hs-578T, 7.33 µM (inactive); in the assay with 786-0, 13.9 µM (inactive). For the same compound, the GI50 with SK-MEL-28 is > 100 µM (inactive); with SW-620, > 100 µM (inactive); in the assay on A498, 31 µM (inactive); with MCF7, 97.1 µM (inactive); in the assay on SF-295, 26.8 µM (inactive); in the assay with OVCAR-5, 78.9 µM (inactive). In addition, the GI50 is 6.18 µM (inactive) with SNB-75; 12.2 µM (inactive) in the assay with SF-539; 55.7 µM (inactive) with UACC-257; > 100 µM (inactive) in the assay on K562; > 100 µM (inactive) with NCI-H23; > 100 µM (inactive) with LOX IMVI. In the assay with OVCAR-8, the GI50 is 32.9 µM (inactive).

As to `Cc1ccc2nc3n(c2c1)C(c1c(F)cccc1F)SC3` (centres undefined), the GI50 in the assay with BT-549, in the assay on SF-268, in the assay on M14, in the assay on SK-MEL-2, in the assay on Hs-578T and in the assay on 786-0 was > 100 µM (inactive) each time. Also, the GI50 with SK-MEL-28 was > 100 µM (inactive); in the assay on SW-620, > 100 µM (inactive); in the assay on A498, > 100 µM (inactive); with MCF7, 47.1 µM (inactive); in the assay on SF-295, > 100 µM (inactive); in the assay on OVCAR-5, > 100 µM (inactive). For the same compound, the GI50 in the assay on SNB-75, with SF-539, in the assay on UACC-257, with K562, in the assay with NCI-H23 and with LOX IMVI was > 100 µM (inactive) in each case.

Consider `CC1(C)CCC2(C(=O)OC3OC(CO)C(O)C(O)C3O)CCC3(C)C(=CCC4C5(C)CCC(OC6OC(CO)C(O)C(O)C6O)C(C)(C)C5CCC43C)C2C1` (centres undefined), for which the GI50 is 9.44 µM (inactive) in the assay with BT-549; 6.93 µM (inactive) in the assay with SF-268; 14.8 µM (inactive) in the assay on M14; 5.45 µM (inactive) in the assay on SK-MEL-2; 10.7 µM (inactive) in the assay on Hs-578T; 17.3 µM (inactive) with 786-0. Also, the GI50 was 6.93 µM (inactive) in the assay on SK-MEL-28; 8.83 µM (inactive) in the assay with SW-620; > 25 µM (inactive) in the assay on A498; 8 µM (inactive) in the assay with MCF7; 15.2 µM (inactive) with SF-295; 24.1 µM (inactive) in the assay with OVCAR-5. Also, the GI50 in the assay with SNB-75 was 11.2 µM (inactive); with SF-539 it was 5.4 µM (inactive); with UACC-257, 16.9 µM (inactive); in the assay on K562, 9.04 µM (inactive); in the assay with NCI-H23 it was 11.9 µM (inactive); in the assay with LOX IMVI, 4.51 µM (inactive). For the same compound, the GI50 in the assay with OVCAR-8 is 15.8 µM (inactive).

On to `C[n+]1c2ccccc2n2c3ccccc3c(NCCc3ccccn3)c(C#N)c21`, for which the GI50 with BT-549 was 5.89 µM (inactive); with SF-268 it was 2.36 µM (inactive); in the assay with M14, 2.38 µM (inactive); in the assay on SK-MEL-2, 2.61 µM (inactive); in the assay with Hs-578T, 2.81 µM (inactive); with 786-0 it was 1.58 µM (inactive). Also, the GI50 in the assay with SK-MEL-28 is 2.32 µM (inactive); in the assay on SW-620, 0.661 µM (active); with A498, 4.4 µM (inactive); with MCF7, 0.249 µM (active); in the assay on SF-295 it was 2.32 µM (inactive); in the assay on OVCAR-5 it was 2 µM (inactive). Moreover, the GI50 with SNB-75 is 1.38 µM (inactive); in the assay on SF-539, 1.99 µM (inactive); in the assay with UACC-257 it was 3.5 µM (inactive); in the assay with K562, 2.21 µM (inactive); with NCI-H23 it was 2.56 µM (inactive); with LOX IMVI, 1.17 µM (inactive). Further, the GI50 in the assay with OVCAR-8 was 1.18 µM (inactive).

As for `CCc1cccc(CC)c1Nc1nc(-c2ccccc2-c2ccccc2)cs1`, the GI50 with BT-549 was 18.2 µM (inactive); in the assay on SF-268, > 100 µM (inactive); in the assay on M14 it was 92.9 µM (inactive); in the assay on SK-MEL-2, > 100 µM (inactive); with Hs-578T, 70.6 µM (inactive); in the assay with 786-0, > 100 µM (inactive). For the same compound, the GI50 with SK-MEL-28 is > 100 µM (inactive); with SW-620, > 100 µM (inactive); in the assay with A498, > 100 µM (inactive); with MCF7, 66.2 µM (inactive); in the assay on SF-295, > 100 µM (inactive); with OVCAR-5, > 100 µM (inactive). Moreover, the GI50 in the assay with SNB-75 is 29.5 µM (inactive); in the assay with SF-539, > 100 µM (inactive); in the assay on UACC-257 it was > 100 µM (inactive); in the assay with K562, 51.5 µM (inactive); in the assay on NCI-H23, 93.8 µM (inactive); with LOX IMVI it was > 100 µM (inactive).

Regarding `CC(=O)Nc1ccc(C2SCc3nc4ccccc4n32)cc1` (centres undefined), the GI50 is > 35.7 µM (inactive) with BT-549; 55.2 µM (inactive) with SF-268; > 100 µM (inactive) in the assay on M14; > 100 µM (inactive) in the assay on SK-MEL-2; 41.9 µM (inactive) in the assay on Hs-578T; 56.8 µM (inactive) in the assay with 786-0. The GI50 with SK-MEL-28 was > 100 µM (inactive); with SW-620, > 100 µM (inactive); with A498, 4.91 µM (inactive); in the assay on MCF7 it was 57 µM (inactive); with SF-295 it was 87.9 µM (inactive); with OVCAR-5 it was > 100 µM (inactive). Further, the GI50 with SNB-75 is 34.4 µM (inactive); with SF-539 it was > 100 µM (inactive); with UACC-257, 57.4 µM (inactive); in the assay on K562, 66.8 µM (inactive); in the assay on NCI-H23, 34.6 µM (inactive); in the assay with LOX IMVI, 63.8 µM (inactive). For the same compound, in the assay with OVCAR-8, the GI50 was 37.7 µM (inactive).

In the case of `CC[C@]12CCCN3CCc4c(n(c5ccccc45)C(=O)C1)[C@@H]32` [VINBURNINE], the GI50 with BT-549 is 24.7 µM (inactive); in the assay on SF-268, 11.6 µM (inactive); with M14, 3.97 µM (inactive); with SK-MEL-2, 4.92 µM (inactive); in the assay on Hs-578T, 9.33 µM (inactive); in the assay on 786-0, 10.1 µM (inactive). The GI50 in the assay with SK-MEL-28 was > 36.5 µM (inactive); in the assay on SW-620 it was 3.94 µM (inactive); with A498 it was 14.4 µM (inactive); in the assay on MCF7 it was 3.51 µM (inactive); with SF-295 it was 3.58 µM (inactive); with OVCAR-5 it was 34.6 µM (inactive). Further, the GI50 is 13.3 µM (inactive) in the assay on SNB-75; 7.91 µM (inactive) with SF-539; 15.2 µM (inactive) with UACC-257; 2.9 µM (inactive) in the assay with K562; 13.7 µM (inactive) in the assay on NCI-H23; 10 µM (inactive) with LOX IMVI. The GI50 in the assay on OVCAR-8 was 15.5 µM (inactive).

`C=C(C)C1CC2=C(O1)C(=O)c1cccc(O)c1C2=O` (centres undefined): the GI50 in the assay with BT-549 was 0.406 µM (active); with SF-268 it was 0.333 µM (active); in the assay on M14, 0.951 µM (active); with SK-MEL-2, 1.17 µM (inactive); in the assay on Hs-578T it was 1.16 µM (inactive); in the assay on 786-0 it was 9.12 µM (inactive). In addition, the GI50 in the assay on SK-MEL-28 is 1.7 µM (inactive); with SW-620 it was 0.929 µM (active); in the assay with A498, 5.46 µM (inactive); in the assay on MCF7, 0.586 µM (active); with SF-295, 1.36 µM (inactive); in the assay on OVCAR-5, 1.57 µM (inactive). Further, the GI50 with SNB-75 is 2.29 µM (inactive); in the assay with SF-539 it was 0.671 µM (active); in the assay with UACC-257 it was 0.271 µM (active); in the assay with K562 it was 0.0935 µM (active); in the assay with NCI-H23, 0.244 µM (active); in the assay with LOX IMVI, 4.26 µM (inactive).
